Experimental findings from patent US12102631B2, “Quinolylnitrones for the treatment and prevention of a cerebral stroke or ischaemia” (ISQUAEMIA BIOTECH, S.L., priority 2018, dated 2024) are described below.

Molecules are shown by their SMILES. Several values for one entry are separate records, joined by “and”; a condition that tells them apart may be missing. Identical values can stand only once. Bounds are passed on as bounds.

A word on the melting point: it is the temperature, or range, at which the solid turns liquid. Broadly, the viability is a read-out of living cells in per cent, often relative to untreated cells.

The test system of data set [1] is primary neuronal cultures from rat cerebral cortex. Briefly: Neuroprotection (MTT cell viability) in primary neuronal cultures exposed to oxygen-glucose deprivation (OGD). To be noted: Rattus norvegicus, 24 h recovery after 4 h OGD, R24 h = 0%, control = 100%. It is filed as cell-based. As to the method: Primary neuronal cultures. Primary neuronal cultures from rat cerebral cortex were prepared as previously described.^54 All procedures associated with animal experiments were approved by the Ethics Committee of the Hospital Ramón y Cajal, Madrid (Spain). Cell suspensions from cerebral cortex were prepared from 16- to 17-day-old Sprague-Dawley rat embryos. Living cells in cell suspension were counted by trypan blue exclusion method. Cells were seeded on plastic multidishes precoated with 0.05 mg/mL poly-D-lysine at a density of 2.5×10^5 cells/cm^2 and were kept at 37° C. in a 6.5% CO2 atmosphere in high glucose Dulbecco's medium supplemented with 15% heat-inactivated (56° C. for 30 min) foetal calf serum. After 24 h, cultured cells were […] to induce experimental ischemia.^23 Cultured cells were washed and placed in glucose-free Dulbecco's medium (bubbled with 95% N2/5% CO2 for 30 min), and maintained in a humidified hypoxia chamber equipped with an oxygen and carbon dioxide control unit (Biospherix) at 6.5% CO2 and <0.1% O2 in N2 at 37° C. Cells were exposed to OGD for a period of 4 h (OGD 4 h). At the end of the OGD period, culture medium was replaced with oxygenated serum-free medium, and cells were placed and maintained in the normoxic incubator for 24 h to recovery (R24 h). In the neuroprotection experiments, the compounds were added at the onset of recovery period. Control cultures in Dulbecco's medium containing glucose were kept in the normoxic incubator for the same period of time as the OGD, and then medium (Dulbecco's/Ham's F12, 1:1 [vol/vol], 5 mg/mL glucose, 2 mM L-glutamine, and 1 mM sodium pyruvate, and supplemented with 100 μg/mL transferrin, 100 μM putrescine, 20 nM progesterone, 30 nM sodium selenite and 5 μg/mL insulin). Here, 6-7 day old cultured neurons were used in the experiments, and contained 90% β-III-tubulin-positive mature neurons, as described previously.^55
Exposure of cell cultures to oxygen-glucose deprivation and treatments. Primary neuronal cultures were exposed to […]. Control experiments included the same amounts of vehicle (final concentration<0.5% ethanol). Nitrone 2 was used as reference compound for neuroprotection. The experimental procedures were blindly performed, assigning a random order to each assayed nitrone. Nitrones were analyzed independently four-eight times with different batch of cultures and each experiment was run in quadruplicate.
Cell viability assay. Cell viability was evaluated by quantification of living, metabolically active cells, as determined by a colorimetric assay using the photometric reduction of 3-(4,5-dimethylthiazol-2-yl)-2,5-diphenyl tetrazolium bromide (MTT) (Roche) to a blue formazan product. The assay of living, metabolically active cells was performed by incubating with 0.2 mg/mL MTT in the culture medium for 1.5 h in an incubator at 37° C. in a 6.5% CO2 atm. After the incubation period, cells were lysed with an equal volume of 10 mM HCl and 10% SDS overnight. Values were quantified by absorbance (test 595 nm, reference 690 nm). Decreased MTT activity denotes impairment of mitochondrial function and is considered to be an index of cell damage. Primary neuronal cultures were collected at times indicated for MTT determination.
Neuroprotection of compounds was evaluated by a cell viability assay. The neuroprotective effect of the compounds 5-32 was evaluated on primary neuronal cultures from cerebral cortex subjected to oxygen-glucose deprivation (OGD) to induce experimental ischemia. Afterwards, cultured neurons were placed and kept in normoxic and normoglycemic conditions to recovery. […]

Data set [2] relates to Carrageenan-induced rat paw edema. Briefly: Inhibition of Carrageenan-induced rat paw edema. It is filed as in vivo, Fisher 344 rats. To be noted: 0.01 mmol/kg intraperitoneally; 3.5 h after Carrageenan. Here is the method: Inhibition of the Carrageenan-induced edema. Edema was induced in the right hind paw of Fisher 344 rats (150-200 g) by the intradermal injection of 0.1 mL 2% Carrageenan in water. Both sexes were used. Females pregnant were excluded. Each group was composed of 6 animals. The experiment was performed twice for validation. The animals, which have been bred in our laboratory, were housed under standard conditions and received a diet of commercial food pellets and water ad libitum during the maintenance, but they were entirely fasted during the experiment period. Nitrone 23 as well as of the standard drug indomethacin in 0.01 mmol/kg body weight, were diluted in water with few drops of Tween 80 and ground in a mortar before use and they were given intraperitoneally simultaneously with the Carrageenan injection. The rats were euthanized 3.5 h after Carrageenan administration. The difference between the weight of the injected and uninjected paws was calculated for each animal. The change in paw weight was compared with that in control animals (treated with water/or Tween-water) and expressed as a percent inhibition of the edema % ICPE values (Table 2). Values % ICPE are the mean from two different experiments (n=6 animals each time) with a standard error of the mean less than 10%.
For orientation: The carrageenan paw model is a standard test of acute inflammation.

Data set [3] can be described thus: Interaction with the stable radical DPPH. The data set is classed as biochemical. To be noted: tested at 100 μM; reducing activity. As to the method:
Interaction of the nitrone with the Stable Radical 1,1-diphenyl-picrylhydrazyl (DPPH) To a solution of DPPH in absolute ethanol the appropriate volume of the compounds (0.1 mM final concentrations) dissolved in DMSO was added. The absorbance was recorded at 517 nm after 20 and 60 min at room temperature (Table 1).
3.1. Antioxidant activity of QNs using radical DPPH. […] This purple colour generally disappears in the presence of an antioxidant due to the reduction of the DPPH radical by single electron transfer (SET) from the antioxidant converted it to colourless/bleached product. […] In this assay, we measured the initial absorbance of DPPH and the absorbance once the potential antioxidant was added. The antioxidant activity was expressed as the percentage of reducing activity.
For orientation: The DPPH test is a chemical assay of radical scavenging.

Data set [4] is described as follows: Hydroxyl radical scavenging (competition with DMSO). It is filed as biochemical. As to conditions: tested at 100 μM. Here is the method: Hydroxyl Radicals Scavenging Activity.^32 The hydroxyl radicals were produced by the Fe^3+/ascorbic acid system. EDTA (0.1 mM), Fe^3+ (167 μM), DMSO (33 mM) in phosphate buffer (50 mM, pH 7.4), the tested compounds (0.1 mM) and ascorbic acid (10 mM) were mixed in test tubes. The solutions were incubated at 37° C. for 30 min. The reaction was stopped by trichloroacetic acid (17% w/v) (Table 1) and the % scavenging activity of the tested compounds for hydroxyl radicals was given.
3.2. Competition of QNs with DMSO for hydroxyl radicals. Among the ROS, the hydroxyl (·OH) free radical is possibly the most toxic, as it easily reacts with biological important molecules such as DNA, lipids or carbohydrates. Polyunsaturated fatty acids are found in high concentrations in the CNS, and are particularly vulnerable to free radicals attack. Thus, we tried to test the ability of our compound to scavenge hydroxyl radicals. […] Antioxidants with lipophilic character are needed to act as radical scavengers or as chain-breaking antioxidants in biological membranes.

Data set [5] is described as follows: ABTS radical cation decolorization assay. The data set is classed as biochemical. As to conditions: tested at 100 μM. As to the method:
ABTS^⋅+-decolorization assay in ethanolic solution for antioxidant activity.^32,35 ABTS is dissolved in water to a 2 mM concentration. ABTS radical cation (ABTS^⋅+) is produced by reacting the ABTS stock solution with 0.17 mM potassium persulfate in phosphate buffer (pH 7.4, 20 mM) and allowing the mixture to stand in the dark at room temperature for 12-16 h before use. For steady state measurements, […] ABTS^⋅+ was used. For the present study, the […] ABTS^⋅ solution (200 μL) was diluted with ethanol (790 μL) to an absorbance of 0.70 at 734 nm, equilibrated at room temperature, mixed with 10 μL of the tested compounds (stock solutions 10 mM) and the absorbance reading was taken at room temperature 1 min after the initial mixing. Trolox was used as a standard.
3.4. ABTS^⋅+ antioxidant activity of QNs. The ABTS^⋅+ radical cation, derived from the oxidation of 2,2′-azino-bis(3-ethylbenzothiazoline-6-sulphonic acid) (ABTS) by potassium persulfate, is a green-blue stable chromophore, which can be analyzed in the course of a decolorization assay. The addition of electron-donor antioxidants leads to ABTS^⋅+ reduction. The chemistry taking place involves the direct generation of the ABTS^⋅+ with no involvement of an intermediary radical. […] Again, and as shown, QN23 presented limited activity beside with 19, although the others nitrones had no activity (Table 3).

Data set [6] is described as follows: Inhibition of linoleic acid peroxidation (AAPH, ILPO). It is filed as biochemical. As to conditions: tested at 100 μM. Here is the method: Inhibition of Linoleic Acid Peroxidation.^32 For initiating the free radical, 2,2′-azobis(2-amidinopropane) dihydrochloride (AAPH) is used. The final solution in the UV cuvette consisted of ten microliters of the 16 mM linoleate sodium dispersion 0.93 mL of 0.05 M phosphate buffer, pH 7.4, thermostatted at 37° C. 50 μL of 40 mM AAPH solution was added as a free radical initiator at 37° C. under air and 10 μL of the tested compounds. The oxidation of linoleic acid sodium salt results a conjugated diene hydroperoxide. The reaction is monitored at 234 nm (Table 1).
3.3. Anti-lipid peroxidation activity of QNs. The water-soluble azo compound 2,2′-azobis(2-amidinopropane) dihydrochloride (AAPH) has been extensively used as a clean and controllable source of thermally produced alkyl peroxyl free radicals through spontaneous thermal decomposition. […] In the AAPH assay to determine the inhibition of the lipid peroxidation (ILPO), the highly reactive alkylperoxyl radicals are intercepted mainly by a hydrogen atom transfer from the antioxidant. As shown, QN23 presented limited value, where QNs 19, 22 and 24 presented very high values (Table 3).

`Cc1ccc2c(c1)cc(/C=[N+](\[O-])Cc1ccccc1)c(Cl)[n+]2[O-]` [Compound 29, (Z)—N-Benzyl-1-(2-chloro-6-methyl-1-oxidoquinolin-3-yl)methanimine oxide] showed a melting point of 163 to 165 °C. Also, in data set [1], the viability at 0.3 µM was 8.28 ± 0.51%, the viability at 1 µM is < 0%, the viability at 10 µM is < 0% and the viability at 100 µM is < 0%.

Molecule `Cc1ccc2c(c1)cc(/C=[N+](\[O-])C(C)(C)C)c(Cl)[n+]2[O-]` [Compound 30, (Z)—N-tert-Butyl-1-(2-chloro-6-methyl-1-oxidoquinolin-3-yl)methanimine oxide] registered a melting point of 211 to 214 °C. For the same molecule, in data set [1], the viability at 0.3 µM was 13 ± 0.47%, the viability at 1 µM worked out at 37.5 ± 1.94%, the viability at 10 µM was < 0% and the viability at 100 µM was < 0%.

Molecule `COc1ccc2c(c1)c(CC(=O)O)c(C)n2C(=O)c1ccc(Cl)cc1` [Indomethacin, indomethacin, reference compound] came in with an ICPE % in data set [2] of 47 ± 1.0 %.

Turning to `CC(Cc1ccc(O)c(O)c1)C(C)Cc1ccc(O)c(O)c1` (stereo not shown) [NDGA, nordihydroguaiaretic acid, reference compound], in data set [3], the “DPPH (%)” value stood at 93%.

In the case of `Cc1c(C)c2c(c(C)c1O)CCC(C)(C(=O)O)O2` (stereo not shown) [Trolox, reference compound], the “*OH (%)” value in data set [4] came to 73%. In addition, in data set [5], the “ABTS*+ (%)” value turned out to be 91%. Moreover, the “ILPO (%) / AAPH (%)” value in data set [6] is 63% and 88%; in data set [6] (listed as trolox), 88%.
